Test results from article PMC5564600 (Oncotarget, 2017).

Legend:
Experiment in all cases: biochemical
Format in all cases: binding
panel of 442 kinases [1] = biological target: T1, panel of 442 kinases (Homo sapiens, UniProt Q6XUX3); settings: kinase RIPK5; for remaining activity at 1 µM: read-out: RIPK5 (% of control at 1 µM)
T1 construct: purchased Ambit Biosciences (scanMAXX KINOMEscan)
T1 sequence (Q6XUX3 1-929): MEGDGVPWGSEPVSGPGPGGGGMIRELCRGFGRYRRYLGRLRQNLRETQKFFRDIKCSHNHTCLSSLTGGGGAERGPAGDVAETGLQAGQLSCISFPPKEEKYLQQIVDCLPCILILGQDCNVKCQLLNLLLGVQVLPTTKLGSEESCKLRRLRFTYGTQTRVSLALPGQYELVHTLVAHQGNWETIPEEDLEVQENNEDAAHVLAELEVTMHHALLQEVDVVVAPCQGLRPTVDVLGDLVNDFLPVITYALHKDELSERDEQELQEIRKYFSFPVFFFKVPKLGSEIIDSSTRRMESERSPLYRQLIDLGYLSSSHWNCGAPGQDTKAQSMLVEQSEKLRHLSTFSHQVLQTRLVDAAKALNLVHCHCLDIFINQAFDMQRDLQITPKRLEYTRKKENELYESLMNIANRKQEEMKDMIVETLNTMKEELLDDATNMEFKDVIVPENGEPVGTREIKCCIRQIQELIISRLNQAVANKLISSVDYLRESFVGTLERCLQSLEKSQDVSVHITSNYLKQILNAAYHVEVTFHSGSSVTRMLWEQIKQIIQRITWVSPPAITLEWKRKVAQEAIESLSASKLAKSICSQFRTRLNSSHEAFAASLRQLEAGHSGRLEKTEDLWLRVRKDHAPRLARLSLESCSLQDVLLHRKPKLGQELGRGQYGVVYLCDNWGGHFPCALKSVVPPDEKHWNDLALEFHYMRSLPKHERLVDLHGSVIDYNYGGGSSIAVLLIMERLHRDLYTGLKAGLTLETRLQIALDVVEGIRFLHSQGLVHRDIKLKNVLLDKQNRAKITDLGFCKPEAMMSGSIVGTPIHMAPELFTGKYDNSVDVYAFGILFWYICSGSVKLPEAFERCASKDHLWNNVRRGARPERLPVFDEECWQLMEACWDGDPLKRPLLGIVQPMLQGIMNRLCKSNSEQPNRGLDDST

panel of 442 kinases [2] = biological target: T2, panel of 442 kinases (Homo sapiens, UniProt Q8NG66); settings: kinase NEK11; for remaining activity at 1 µM: read-out: % of control at 1 µM
T2 construct: purchased Ambit Biosciences (scanMAXX KINOMEscan)
T2 sequence (Q8NG66 1-645): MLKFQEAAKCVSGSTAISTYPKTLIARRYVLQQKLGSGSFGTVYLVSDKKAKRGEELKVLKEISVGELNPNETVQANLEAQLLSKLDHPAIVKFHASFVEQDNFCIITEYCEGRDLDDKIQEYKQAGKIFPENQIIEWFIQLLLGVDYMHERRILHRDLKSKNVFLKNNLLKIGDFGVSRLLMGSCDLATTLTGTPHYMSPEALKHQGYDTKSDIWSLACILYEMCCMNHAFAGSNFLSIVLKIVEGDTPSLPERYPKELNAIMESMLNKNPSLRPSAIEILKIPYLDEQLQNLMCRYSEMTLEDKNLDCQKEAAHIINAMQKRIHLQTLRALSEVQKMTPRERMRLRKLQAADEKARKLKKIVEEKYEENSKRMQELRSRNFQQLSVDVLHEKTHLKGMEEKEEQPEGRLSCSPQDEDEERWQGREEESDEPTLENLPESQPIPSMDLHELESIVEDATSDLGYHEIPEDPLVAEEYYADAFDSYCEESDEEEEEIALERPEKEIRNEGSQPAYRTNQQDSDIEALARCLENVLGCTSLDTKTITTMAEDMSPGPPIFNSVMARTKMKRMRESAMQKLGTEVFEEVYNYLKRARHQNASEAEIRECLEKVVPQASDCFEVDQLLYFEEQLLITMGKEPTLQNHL

panel of 442 kinases [3] = biological target: T3, panel of 442 kinases (Homo sapiens, UniProt P45983); settings: kinase JNK1; for remaining activity at 1 µM: read-out: % of control at 1 µM
T3 construct: purchased Ambit Biosciences (scanMAXX KINOMEscan)
T3 sequence (P45983 whole entry): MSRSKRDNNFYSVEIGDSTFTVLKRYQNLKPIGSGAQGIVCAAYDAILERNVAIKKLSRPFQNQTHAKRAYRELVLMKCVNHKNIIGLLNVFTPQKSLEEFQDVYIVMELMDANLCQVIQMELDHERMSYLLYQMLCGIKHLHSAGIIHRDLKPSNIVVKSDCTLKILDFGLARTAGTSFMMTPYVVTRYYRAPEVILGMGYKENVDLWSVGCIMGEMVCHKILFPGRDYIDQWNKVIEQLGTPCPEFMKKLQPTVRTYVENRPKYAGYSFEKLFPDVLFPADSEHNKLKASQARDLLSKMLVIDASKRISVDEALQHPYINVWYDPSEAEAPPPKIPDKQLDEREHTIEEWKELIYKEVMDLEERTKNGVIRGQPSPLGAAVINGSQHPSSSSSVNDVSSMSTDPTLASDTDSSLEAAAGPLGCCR

panel of 442 kinases [4] = biological target: T4, panel of 442 kinases (Homo sapiens, UniProt P52333); settings: kinase JAK3(JH1domain-catalytic); for remaining activity at 1 µM: read-out: % of control at 1 µM
T4 construct: purchased Ambit Biosciences (scanMAXX KINOMEscan)
T4 sequence (P52333 1-1124): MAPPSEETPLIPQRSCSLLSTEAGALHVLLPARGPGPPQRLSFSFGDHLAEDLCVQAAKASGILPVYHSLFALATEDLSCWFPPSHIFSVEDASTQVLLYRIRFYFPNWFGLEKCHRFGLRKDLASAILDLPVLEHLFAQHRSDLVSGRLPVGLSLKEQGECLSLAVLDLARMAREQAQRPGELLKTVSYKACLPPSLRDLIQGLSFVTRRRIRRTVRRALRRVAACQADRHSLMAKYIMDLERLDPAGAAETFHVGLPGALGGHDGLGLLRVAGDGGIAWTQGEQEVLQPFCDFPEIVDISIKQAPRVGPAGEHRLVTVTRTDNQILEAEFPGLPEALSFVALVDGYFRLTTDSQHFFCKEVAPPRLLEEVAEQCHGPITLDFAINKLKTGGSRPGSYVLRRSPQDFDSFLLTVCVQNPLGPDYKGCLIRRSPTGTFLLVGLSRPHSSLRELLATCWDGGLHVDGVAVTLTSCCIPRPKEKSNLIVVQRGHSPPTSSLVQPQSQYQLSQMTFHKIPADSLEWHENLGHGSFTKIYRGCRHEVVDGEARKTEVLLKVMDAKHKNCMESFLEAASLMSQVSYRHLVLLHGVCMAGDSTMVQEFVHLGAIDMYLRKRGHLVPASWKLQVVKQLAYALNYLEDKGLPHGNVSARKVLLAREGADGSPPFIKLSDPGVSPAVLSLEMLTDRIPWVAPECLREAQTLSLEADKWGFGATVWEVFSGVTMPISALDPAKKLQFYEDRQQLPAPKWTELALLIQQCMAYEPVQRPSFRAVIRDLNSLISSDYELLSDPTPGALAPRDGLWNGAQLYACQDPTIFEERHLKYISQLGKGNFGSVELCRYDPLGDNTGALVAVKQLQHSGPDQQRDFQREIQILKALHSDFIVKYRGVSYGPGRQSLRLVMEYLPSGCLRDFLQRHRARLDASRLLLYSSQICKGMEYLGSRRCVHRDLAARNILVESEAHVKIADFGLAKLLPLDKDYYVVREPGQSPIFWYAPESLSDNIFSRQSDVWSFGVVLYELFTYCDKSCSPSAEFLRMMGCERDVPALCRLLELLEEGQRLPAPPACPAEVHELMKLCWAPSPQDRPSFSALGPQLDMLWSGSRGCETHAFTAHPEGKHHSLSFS

[5] = 10 µM, read-out: % of control at 10 µM

## Nc1cc(C(F)(F)F)c(-c2cc(N3CCOCC3)nc(N3CCOCC3)n2)cn1 [Buparlisib]
Panel of 442 kinases [1]
  remaining activity at 1 µM: 100%
Panel of 442 kinases [1]; 10 µM, read-out: RIPK5 (% of control at 10 µM)
  remaining activity at 10 µM: 89%
Panel of 442 kinases [2]
  remaining activity at 1 µM: 74%
Panel of 442 kinases [2]; [5]
  remaining activity at 10 µM: 96%
Panel of 442 kinases [3]
  remaining activity at 1 µM: 98%
Panel of 442 kinases [3]; [5]
  remaining activity at 10 µM: 100%
Panel of 442 kinases [4]
  remaining activity at 1 µM: 90%
Panel of 442 kinases [4]; [5]
  remaining activity at 10 µM: 89%

## Cn1c(=O)n(-c2ccc(C(C)(C)C#N)cc2)c2c3cc(-c4cnc5ccccc5c4)ccc3ncc21 [Dactolisib, 2-methyl-2-[4-(3-methyl-2-oxo-8-quinolin-3-yl-2,3-dihydroimidazo[4,5-c]quinolin-1-yl)-phenyl] propionitrile]
Panel of 442 kinases [1]
  remaining activity at 1 µM: 80%
Panel of 442 kinases [2]
  remaining activity at 1 µM: 81%
Panel of 442 kinases [3]
  remaining activity at 1 µM: 84%
Panel of 442 kinases [4]
  remaining activity at 1 µM: 37%

## COc1ncc(-c2ccc3nccc(-c4ccnnc4)c3c2)cc1NS(=O)(=O)c1ccc(F)cc1F [Omipalisib]
Panel of 442 kinases [1]
  remaining activity at 1 µM: 100%
Panel of 442 kinases [2]
  remaining activity at 1 µM: 100%
Panel of 442 kinases [3]
  remaining activity at 1 µM: 100%
Panel of 442 kinases [4]
  remaining activity at 1 µM: 82%

## FC(F)c1nc2ccccc2n1-c1nc(N2CCOCC2)nc(N2CCOCC2)n1 [ZSTK474, 2-(difluoromethyl)-1-[4,6-di(4-morpholinyl)-1,3,5-triazin-2-yl]-1H-benzimidazole]
Panel of 442 kinases [1]
  remaining activity at 1 µM: 92%
Panel of 442 kinases [2]
  remaining activity at 1 µM: 82%
Panel of 442 kinases [3]
  remaining activity at 1 µM: 86%
Panel of 442 kinases [4]
  remaining activity at 1 µM: 100%
